{"source": "patent US20220370463A1", "about": "“STABILIZED C-FMS INTRACELLULAR FRAGMENTS (FICD) PROMOTE OSTEOCLAST DIFFERENTIATION AND ARTHRITIC BONE EROSION” (New York Society for the Relief of the Ruptured and …, priority 2019, published 2022)", "key": {"[1]": {"test_system": "K/BxN serum-induced arthritis", "experiment": "K/BxN serum transfer induced arthritis model", "type": "in vivo, C57BL/6J mice", "method": "(a and b) BMDMs from WT and FICDtg^M mice was stimulated with RANKL (50 ng/ml) at the indicated time. (a) RT-qPCR of Nfatc1 mRNA normalized relative to Hprt mRNA. (b) Immunoblot with anti NFATc1, HA, or α-tubulin antibodies. (c and d) BMDMs from Csf1r^f/+ Mx1-Cre mice were transduced by lentiviruses encoding FMS^wt, or FMS^mut and then cultured with M-CSF and RANKL. (c) Immunoblot of whole lysate with anti-NFATc1 antibody. α-tubulin was used as a control. […] The intensity of NFATc1 in FMS^mut was set as 100%. (d) Expression mRNA level of NFATc1. (e) Immunoblot of whole cell lysates with phospho-eIF4E antibodies. HA-tagged FICD was detected by HA-antibody. α-tubulin was used as a control. […] (f and g) Human CD14+ cells were treated with CGP57380 at the indicated doses for one hour and cultured with RANKL for one day. […] (g) Nfatc1 mRNA expression was measured by qPCR relative to HPRT. A DMSO-treated RANKL condition was set as 100%. (h) Osteoclastogenesis assay. BMDMs from WT and FICDtg^M mice were treated with CPG57380 at the indicated doses and then cultured with RANKL for three days. […] Scale bar: 100 μm. (i) Cell viability assay. BMDMs WT and FICDtg^M mice was stimulated with CPG57380 at the indicated doses for one day. (j-n) K/BxN serum transfer induced arthritis model. 9-week old male C57BL/6J mice were received K/BxN serum on day 0 and day 2. Vehicle or CPG57380 (40 mg/kg) was administrated intraperitoneally (i.p) at day 2 until day 13 (n=5-6). (j) Schematic diagram showing experimental design. (k) Ankle thickness. (1) Arthritis score. (m) Representative images of TRAP stained histological sections from calcaneocuboid and tarsometatarsal joints. (n) Histomorphometry analysis of tarsal bones. N.OC/B.Pm; Osteoclast number/bone parameter. OC.S/BS; osteoclast surface/bone surface. ES/BS; Eroded surface/bone surface (n=5-6). All data are shown as mean±SEM. *, p<0.05 by One-way ANOVA with a post hoc Tukey test (a, f-i,k,l) or two-tailed, unpaired t-test (d,e,n). Data represent at least three experiments.\nFIGS. 11A-11E show calpain regulates FICD generation. (A-E) K/BxN serum transfer induced arthritis model. 8-week old male C57BL/6J mice were received K/BxN serum on day 0 and day 2. Vehicle or MDL28170 (10 mg/kg) was administrated intraperitoneally (i.p) at day 2 until day 11 (n=10). (A) K/BxN Experimental design. (B) Arthritis score. (C) Ankle thickness. (D) Representative images of TRAP stained histological sections from calcaneocuboid and tarsometatarsal joints. (E) Histomorphometry analysis of tarsal bones. N.OC/B.Pm; Osteoclast number/bone parameter. […]\nHistomorphometry experiment was performed with tarsal bone of vehicle or MDL28170 treated mice. […] The quantification of osteoclast was performed in paraffin embedded tissues that were stained for TRAP and Methyl green (Vector Laboratories). […]"}, "[2]": {"test_system": "human CD14+ cells", "experiment": "Human osteoclastogenesis assay (TRAP-positive multinuclear cells)", "type": "cell-based", "details": "M-CSF, RANKL and MDL28170 for 4 days", "method": "FIGS. 10A-10F show calpain regulates FICD generation. (A and B) Human CD14+ cells were cultured with M-CSF (20 ng/ml) for 8 hours to induce early signals and then (A) MDL 28170(0, 1, 2, 5 uM) or (B) PD150606 (0, 2, 5 uM) was added for 2 days. Immunoblot with anti c-FMS and α-tubulin antibodies in whole lysates(n=3). (C) Immunoblot of nuclear lysates with c-FMS and Lamin B1 antibodies. Cells were cultured with M-CSF for 12 hours, and then M-CSF was removed. Cells were subsequently treated with or without CaCl2 (10 mM) for an additional 24 hours. (D) Osteoclastogenesis assay. Human CD14+ cells were cultured with M-CSF, RANKL and MDL28170 for 4 days. […] Black scale bar is 100 μm. (E) A table showing the calpain cleavage site in c-FMS predicted by GPS-CCD program. First two calpain cleavage sites in cytoplasmic domains of c-FMS were used for FICD constructs. (F) A schematic diagram of a FICD construct. Representative results from at least three independent experiments.\nFor human osteoclastogenesis assays, cells were added to 96 well plates in triplicate at a seeding density of 5×10^4 cells per well. Osteoclast precursors were incubated with 20 ng/ml of M-CSF and 40 ng/ml of human soluble RANKL up to 5 days in α-MEM supplemented with 10% FBS and 1% L-glutamine. […] Multinucleated (greater than 3 nuclei), TRAP-positive osteoclasts were counted in triplicate wells. […]"}, "[3]": {"details": "CGP57380 40 mg/kg i.p. day 2 until day 13"}, "[4]": {"details": "MDL28170 10 mg/kg i.p. day 2 until day 11"}}}
{"substance": "MDL28170", "values": [{"measurement": "severity of arthritis: ankle joint thickness", "setting": "[1]; [3]", "value": "not affected"}, {"measurement": "severity of arthritis: clinical score", "setting": "[1]; [3]", "value": "not affected"}, {"measurement": "severity of arthritis: ankle joint thickness", "setting": "[1]; [4]", "value": "attenuated"}, {"measurement": "severity of arthritis: clinical score", "setting": "[1]; [4]", "value": "attenuated"}, {"measurement": "osteoclast differentiation", "setting": "[2]", "value": "decreased"}]}
